Experimental findings from patent US20230293644A1, “ANTI-INFLAMMATORY PEPTIDES AND COMPOSITION COMPRISING THE SAME” (Gemvax & KAEL Co., Ltd., priority 2012, published 2023) are described below.

For the assay, the system named is TNF-α. In words: Screening of TNF-α inhibitory effect, LPS-stimulated PBMC-derived monocytes (Example 2). Format: cell-based, human. As to conditions: 4 uM peptide, 2 hrs, LPS 10 ng/ml; for TNF-α inhibiting effect compared to the group treated with LPS and estrogen: estrogen 20 nM. On the procedure: PBMC (peripheral blood mononuclear cells) layer was separated from blood samples (50 ml) collected in healthy subjects using Biocoll Separating Solution (Biochrom AG, Berlin, Germany). The collected PBMC were enriched in RPMI 1640 medium containing 20% human serum for 30 mins, and then transferred to 100-mm polystyeren cell culture plate coated with human serum for incubation for 2 hrs at 37° C., 5% CO^2 incubator. Monocytes were detached from the bottom of the plate using cold PBS, and incubated to reach the number of 1 × 10^5 cell/well in 96-well plate with RPMI 1640 medium (supplemented with penicillinstreptomycin; […], human serum; 20%) over night.
ELISA was performed to find out how the peptides of the PEP RIA series influence TNF-α level. PBMC-derived monocytes were incubated to reach the number of 1 × 10^5 cells per well in a 96-well plate and then treated with LPS (lipopolysaccharide; 10 ng/ml, Sigma) for 2 hours. To the monocytes that were washed three times with PBS, OPTI-MEM culture medium was added to induce cell starvation for an hour, 4 µM of the peptide was taken out and incubated for 2 hours. There were three negative control groups. The first group was not treated with anything. The second group that was treated with estrogen (in this experiment, estradiol was used as a kind of estrogen). The third group was treated with LPS (10 ng/ml) or with LPS (10 ng/ml) as well as estrogen (20 nM). PEP1 that was confirmed to have TNF-α inhibiting activity was used as a positive control to measure TNF-α inhibiting activity. After incubation, TNF-α was measured by following the ELISA kit manual (R&D, Minneapolis, MN, USA). The details of quantification method can be found in Experiment 2.2 of Example 1.
Using the method stated above, Peptides with TNF-α inhibiting effect were screened. PBMC-derived monocytes were stimulated with LPS (10 ng/ml), which is endotoxin, for 2 hours and were induced to starve by adding OPTI-MEM for 1 hour. After that, 4 uM of 179 peptides were treated and incubated for 2 hrs. The amount of TNF-α in the cell culture medium was measured using ELISA, and the peptides with TNF-α inhibiting effect were screened by comparing to the negative and positive controls (FIG. 3 to FIG. 23).

“FIPK (listed as Homo sapiens) [SEQ ID NO: 102]”: the “TNF-α inhibiting effect compared to the control group treated with only LPS” value is reported as “showed TNF-α inhibiting effect”; the “TNF-α inhibiting effect compared to the group treated with LPS and estrogen” value is recorded as “showed TNF-α inhibiting effect”.
In the case of “HREARPALLTSRLRFIPKP (listed as Homo sapiens) [SEQ ID NO: 17]”, the “TNF-α inhibiting effect compared to the control group treated with only LPS” value is given as “showed TNF-α inhibiting effect”; the “TNF-α inhibiting effect compared to the group treated with LPS and estrogen” value is “showed TNF-α inhibiting effect”.
Take “HREARPALLTSRLRFIPKPD (listed as Homo sapiens) [SEQ ID NO: 18]”: the “TNF-α inhibiting effect compared to the control group treated with only LPS” value is listed as “showed TNF-α inhibiting effect”; the “TNF-α inhibiting effect compared to the group treated with LPS and estrogen” value is recorded as “showed TNF-α inhibiting effect”.
“HREARPALLTSRLRFIPKPDGLRPI (listed as Homo sapiens) [SEQ ID NO: 63]”: the “TNF-α inhibiting effect compared to the control group treated with only LPS” value was “showed TNF-α inhibiting effect”; the “TNF-α inhibiting effect compared to the group treated with LPS and estrogen” value was “showed TNF-α inhibiting effect”.
As for IPK [SEQ ID NO: 103], the “TNF-α inhibiting effect compared to the control group treated with only LPS” value is on record as “showed TNF-α inhibiting effect”; the “TNF-α inhibiting effect compared to the group treated with LPS and estrogen” value was “showed TNF-α inhibiting effect”.
Regarding “LLTSR (listed as Homo sapiens) [SEQ ID NO: 150]”, the “TNF-α inhibiting effect compared to the control group treated with only LPS” value is “showed TNF-α inhibiting effect”.
For the substance “LLTSRL (listed as Homo sapiens) [SEQ ID NO: 108]”, the “TNF-α inhibiting effect compared to the control group treated with only LPS” value is listed as “showed TNF-α inhibiting effect”; the “TNF-α inhibiting effect compared to the group treated with LPS and estrogen” value is recorded as “showed TNF-α inhibiting effect”.
In the case of “LLTSRLR (listed as Homo sapiens) [SEQ ID NO: 149]”, the “TNF-α inhibiting effect compared to the control group treated with only LPS” value is recorded as “showed TNF-α inhibiting effect”; the “TNF-α inhibiting effect compared to the group treated with LPS and estrogen” value was “showed TNF-α inhibiting effect”.
Consider “LLTSRLRF (listed as Homo sapiens) [SEQ ID NO: 148]”, for which the “TNF-α inhibiting effect compared to the control group treated with only LPS” value is “showed TNF-α inhibiting effect”; the “TNF-α inhibiting effect compared to the group treated with LPS and estrogen” value is listed as “showed TNF-α inhibiting effect”.
As for LRF [SEQ ID NO: 176], the “TNF-α inhibiting effect compared to the control group treated with only LPS” value is reported as “showed TNF-α inhibiting effect”.
Still for that read-out and setting: as for “LRFI (listed as Homo sapiens) [SEQ ID NO: 175]”, the entry is “showed TNF-α inhibiting effect”.
In the case of “LRFIP (listed as Homo sapiens) [SEQ ID NO: 174]”, the “TNF-α inhibiting effect compared to the control group treated with only LPS” value is “showed TNF-α inhibiting effect”; the “TNF-α inhibiting effect compared to the group treated with LPS and estrogen” value was “showed TNF-α inhibiting effect”.
On to “LRFIPK (listed as Homo sapiens) [SEQ ID NO: 100]”, for which the “TNF-α inhibiting effect compared to the control group treated with only LPS” value is “showed TNF-α inhibiting effect”; the “TNF-α inhibiting effect compared to the group treated with LPS and estrogen” value was “showed TNF-α inhibiting effect”.
On to “LSEAEVRQHREARPALLTSRLRFIPK (listed as Homo sapiens) [SEQ ID NO: 11]”, for which the “TNF-α inhibiting effect compared to the control group treated with only LPS” value was “showed TNF-α inhibiting effect”; the “TNF-α inhibiting effect compared to the group treated with LPS and estrogen” value is given as “showed TNF-α inhibiting effect”.
LTS [SEQ ID NO: 158]: the “TNF-α inhibiting effect compared to the control group treated with only LPS” value is recorded as “showed TNF-α inhibiting effect”.
For “LTSRL (listed as Homo sapiens) [SEQ ID NO: 157]”, the “TNF-α inhibiting effect compared to the control group treated with only LPS” value is recorded as “showed TNF-α inhibiting effect”; the “TNF-α inhibiting effect compared to the group treated with LPS and estrogen” value is “showed TNF-α inhibiting effect”.
As to “LTSRLR (listed as Homo sapiens) [SEQ ID NO: 156]”, the “TNF-α inhibiting effect compared to the control group treated with only LPS” value is listed as “showed TNF-α inhibiting effect”; the “TNF-α inhibiting effect compared to the group treated with LPS and estrogen” value is “showed TNF-α inhibiting effect”.
As to “LTSRLRFIPK (listed as Homo sapiens) [SEQ ID NO: 96]”, the “TNF-α inhibiting effect compared to the control group treated with only LPS” value is on record as “showed TNF-α inhibiting effect”; the “TNF-α inhibiting effect compared to the group treated with LPS and estrogen” value was “showed TNF-α inhibiting effect”.
“PALLTSRLRFI (listed as Homo sapiens) [SEQ ID NO: 131]”: the “TNF-α inhibiting effect compared to the control group treated with only LPS” value is reported as “showed TNF-α inhibiting effect”.
Take “QHREARPALLTSRLRFIPKP (listed as Homo sapiens) [SEQ ID NO: 20]”: the “TNF-α inhibiting effect compared to the control group treated with only LPS” value is recorded as “showed TNF-α inhibiting effect”; the “TNF-α inhibiting effect compared to the group treated with LPS and estrogen” value is given as “showed TNF-α inhibiting effect”.
As to “QHREARPALLTSRLRFIPKPD (listed as Homo sapiens) [SEQ ID NO: 21]”, the “TNF-α inhibiting effect compared to the control group treated with only LPS” value was “showed TNF-α inhibiting effect”.
Consider “QHREARPALLTSRLRFIPKPDGLRPI (listed as Homo sapiens) [SEQ ID NO: 62]”, for which the “TNF-α inhibiting effect compared to the control group treated with only LPS” value is on record as “showed TNF-α inhibiting effect”; the “TNF-α inhibiting effect compared to the group treated with LPS and estrogen” value is given as “showed TNF-α inhibiting effect”.
As for “REARPALLTSRLRFIPKPD (listed as Homo sapiens) [SEQ ID NO: 19]”, the “TNF-α inhibiting effect compared to the control group treated with only LPS” value is recorded as “showed TNF-α inhibiting effect”; the “TNF-α inhibiting effect compared to the group treated with LPS and estrogen” value was “showed TNF-α inhibiting effect”.
On to “REARPALLTSRLRFIPKPDGLRPI (listed as Homo sapiens) [SEQ ID NO: 64]”, for which the “TNF-α inhibiting effect compared to the control group treated with only LPS” value is “showed TNF-α inhibiting effect”; the “TNF-α inhibiting effect compared to the group treated with LPS and estrogen” value is “showed TNF-α inhibiting effect”.
On to “RELSEAEVRQHREARPALLTSRLRFIPK (listed as Homo sapiens) [SEQ ID NO: 13]”, for which the “TNF-α inhibiting effect compared to the control group treated with only LPS” value is listed as “showed TNF-α inhibiting effect”.
The same measure, in the same setting: as for RFI [SEQ ID NO: 178], the entry is “showed TNF-α inhibiting effect”.
Still for that read-out and setting: then “RFIP (listed as Homo sapiens) [SEQ ID NO: 177]”, with “showed TNF-α inhibiting effect”.
Take “RFIPK (listed as Homo sapiens) [SEQ ID NO: 101]”: the “TNF-α inhibiting effect compared to the control group treated with only LPS” value is “showed TNF-α inhibiting effect”; the “TNF-α inhibiting effect compared to the group treated with LPS and estrogen” value is listed as “showed TNF-α inhibiting effect”.
On to RLR [SEQ ID NO: 173], for which the “TNF-α inhibiting effect compared to the control group treated with only LPS” value is listed as “showed TNF-α inhibiting effect”; the “TNF-α inhibiting effect compared to the group treated with LPS and estrogen” value is “showed TNF-α inhibiting effect”.
For “RLRF (listed as Homo sapiens) [SEQ ID NO: 172]”, the “TNF-α inhibiting effect compared to the control group treated with only LPS” value is “showed TNF-α inhibiting effect”; the “TNF-α inhibiting effect compared to the group treated with LPS and estrogen” value was “showed TNF-α inhibiting effect”.
On to “RLRFIPK (listed as Homo sapiens) [SEQ ID NO: 99]”, for which the “TNF-α inhibiting effect compared to the control group treated with only LPS” value is “showed TNF-α inhibiting effect”; the “TNF-α inhibiting effect compared to the group treated with LPS and estrogen” value is given as “showed TNF-α inhibiting effect”.
As for “RPALLTSR (listed as Homo sapiens) [SEQ ID NO: 124]”, the “TNF-α inhibiting effect compared to the control group treated with only LPS” value is “showed TNF-α inhibiting effect”.
Still for that read-out and setting: as for “RPALLTSRLRFI (listed as Homo sapiens) [SEQ ID NO: 105]”, the entry is “showed TNF-α inhibiting effect”; as for “RPALLTSRLRFIPK (listed as Homo sapiens) [SEQ ID NO: 92]”, “showed TNF-α inhibiting effect”.
In the case of “RQHREARPALLTSRLRFIPKP (listed as Homo sapiens) [SEQ ID NO: 25]”, the “TNF-α inhibiting effect compared to the control group treated with only LPS” value is given as “showed TNF-α inhibiting effect”; the “TNF-α inhibiting effect compared to the group treated with LPS and estrogen” value is listed as “showed TNF-α inhibiting effect”.
Take “RQHREARPALLTSRLRFIPKPD (listed as Homo sapiens) [SEQ ID NO: 26]”: the “TNF-α inhibiting effect compared to the control group treated with only LPS” value is recorded as “showed TNF-α inhibiting effect”; the “TNF-α inhibiting effect compared to the group treated with LPS and estrogen” value is “showed TNF-α inhibiting effect”.
As to “RQHREARPALLTSRLRFIPKPDG (listed as Homo sapiens) [SEQ ID NO: 27]”, the “TNF-α inhibiting effect compared to the control group treated with only LPS” value is given as “showed TNF-α inhibiting effect”; the “TNF-α inhibiting effect compared to the group treated with LPS and estrogen” value was “showed TNF-α inhibiting effect”.
On to “RQHREARPALLTSRLRFIPKPDGL (listed as Homo sapiens) [SEQ ID NO: 28]”, for which the “TNF-α inhibiting effect compared to the control group treated with only LPS” value was “showed TNF-α inhibiting effect”.
